The values below come from patent publication US12600696B2 (XENIOPRO GMBH, priority 2017, dated 2026).

Holding throughout (assay type): cell-based
The subject of test [1] is CAL-27 cells (human tongue squamous cell carcinoma cells). Kind of test: alamarBlue proliferation assay with CAL-27 cells. The settings on record: Homo sapiens, 120 h, 20 μM, 5 days, relative to DMSO baseline level of 1.0, read-out: AVEw, weighted arithmetic mean of normalized fluorescence intensity values (Activity Range), CAL-27 proliferation. Here is the method: The antiproliferative activities of compounds falling under formula I, formula II, formula III, formula IV and formula V were investigated on cells or cell lines originating from a disorder of the myeloid cell compartment, the neuroendocrine system, the cervix, and the mucosal epithelium, as well as from the skin epithelium. To this end, HL-60 cells, TT cells, HeLa cells, CAL-27 cells and human primary epidermal keratinocytes (HPEK) were seeded into 96-well plates suitable for fluorescence assays (CORNING #3598) at following initial cell numbers: 1000 cells per well for HL-60; 9000 cells per well for TT; 2000 cells per well for HeLa, 2000 cells per well for CAL-27, 2000 cells per well for HPEK. The cells were treated with compounds at indicated final concentrations (diluted from the 1000× stock-solutions in DMSO to a final DMSO concentration of 0.1% v/v) or with the empty carrier DMSO at 0.1% v/v as control for 5 days. At day 5 after starting the treatments the cells were subjected to the alamarBlue® Proliferation Assay (Bio-Rad Serotec GmbH, BUF012B) according to the protocol of the manufacturer. The readout was taken with a multi-well plate-reader in the fluorescence mode with applying a filter for excitation at 560 nm (band width 10 nm) and for emission at 590 nm (band width 10 nm). Resveratrol (RES) treatment was included as control for growth inhibition.
The assays were performed in duplicate or more replicates of independent single experiments each containing a six-fold replicate for every condition. For every individual plate, the measured fluorescence intensity values of the conditions with compound treatment were normalized against the corresponding equally weighted arithmetic mean of the fluorescence intensity values of the six DMSO treated control wells in order to obtain the relative values to a baseline level of 1.0. The statistical calculations were performed in analogy to the luciferase assay as described above. To this end, two independent outlier analyses were performed according to the methods by Peirce and Chauvenet (Ross, Journal of Engineering Technology 2003, 1-12). Outliers confirmed by at least one of the methods were excluded from the calculations but not more than one value out of six per compound within a single experiment. The weighted arithmetic mean AVEw for each compound was calculated from the normalized values over all independent replicates of the single experiments comprising the six replicates each. The corresponding standard deviation for the weighted arithmetic mean was calculated according to the method described by Bronstein et al. (Bronstein, Semendjajew, Musiol, Mühlig, Taschenbuch der Mathematik, 5th edition 2001 (German), publisher: Verlag Harri Deutsch, Frankfurt am Main and Thun) and was combined with the Gauß′ error propagation associated with the performed calculation for the normalization. The resulting standard deviation is herein referred to as “combined standard deviation”.
CAL-27 cells were cultivated according to the protocol of the provider (but at 5% instead of 10% CO2) in DMEM medium (Fisherscientific, #11584456) containing 10% fetal bovine serum (Fisherscientific, #15517589).
A compound is considered as a growth inhibitor of CAL-27 cells, if—at a reference concentration of 20 μM—the weighted arithmetic mean of the normalized fluorescence intensity values after addition of the corresponding combined standard deviation amounts to 0.9 or lower, in particular to 0.8 or lower, 0.7 or lower, 0.6 or lower, 0.4 or lower, and 0.2 or lower, relative to the overall basis level of 1.0. The overall basis level was calculated as the weighted arithmetic mean of all normalized values from the DMSO control measurements in analogy to the calculations performed for the test-compounds. The corresponding combined standard deviation for the DMSO values amounts to less than 1·10^−2.
In general terms: Alamar Blue is a resazurin reagent that responds to reducing activity.

Test [2] has as its system HL-60 cells (human acute myeloid leukemia cells). Kind of test: alamarBlue proliferation assay with HL-60 cells. The settings on record: 120 h, 5 days, relative to DMSO baseline level of 1.0, read-out: AVEw, weighted arithmetic mean of normalized fluorescence intensity values (Activity Range), HL-60 proliferation. In short, it runs like this: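 HL-60 cells (1000/well, RPMI 1640 + 10% FBS) exposed to compound in 0.1% DMSO for 5 days, then alamarBlue fluorescence read (ex 560/em 590 nm). Signals normalized to six DMSO wells per plate (baseline 1.0); outliers removed by Peirce/Chauvenet; weighted mean with combined SD; inhibitor criterion judged at 20 μM reference concentration.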

Test [3] relates to Notch signaling (hNotch1ΔE, human Notch1 receptor) in HeLa cells. Kind of test: Notch reporter assay (luciferase luminescence readout in transfected HeLa cells). To be noted: Homo sapiens, 20 hours, relative to DMSO baseline level of 1.0, read-out: AVEw, weighted arithmetic mean of double-normalized Notch-reporter luciferase luminescence values (Activity Range). The gist of the method:
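HeLa cells were transiently transfected for 24 h with membrane-tethered constitutively active hNotch1ΔE, a CSL-promoter Firefly luciferase reporter and constitutive SV40-Renilla luciferase. Compounds were then applied at 10 μM (0.1% DMSO) for 20 h. Firefly/Renilla dual-luciferase ratios were normalized to DMSO control (baseline 1.0), outliers were excluded, and replicate values were averaged across ≥3 independent experiments.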
Background: Reporter assays use an easily measured gene product as a stand-in for the process of interest.

In the case of `O=C(NO)c1ccc(Oc2ccc(C3C[C@@H]4CC[C@H]3C4)cc2)cc1` (stereo partly drawn) [Compound 184, 4-(4-((1S,4R)-bicyclo[2.2.1]heptan-2-yl)phenoxy)-N-hydroxybenzamide], the activity at 20 µM in test [1] and in test [2] was 0 to 20% in each case. Further, the fold induction at 10 µM in test [3] is 1.3 to 1.4.
For `CC(C)c1ccc(Oc2ccc(C(=O)NO)cc2)cc1` [Compound 170, N-hydroxy-4-(4-isopropylphenoxy)benzamide], the results for the activity at 20 µM in test [1] and in test [2] were 20 to 40% and 0 to 20%, respectively. For the same molecule, the fold induction at 10 µM in test [3] fell in the range of 1.1 to 1.2.
Consider `O=C(NO)c1ccc(Oc2ccc(C3(C(F)(F)F)CC3)cc2)cc1` [Compound 766, N-hydroxy-4-(4-(1-(trifluoromethyl)cyclopropyl)phenoxy)benzamide], for which the activity at 20 µM in test [1] and in test [2] was 0 to 20% in each case.
With `CN(C)C(=O)c1ccc(Oc2ccc(C3(C(F)(F)F)CC3)cc2)nc1` [Compound 820, N,N-Dimethyl-6-(4-(1-(trifluoromethyl)cyclopropyl)phenoxy)-nicotinamide], the values for the activity at 20 µM in test [1] and in test [2] were 80 to 90% and 40 to 60%, respectively. Besides, the fold induction at 10 µM in test [3] was 1.4 to 1.7.
With `CNC(=O)c1ccc(Oc2ccc(C3CC4CCC3CC4)cc2)cc1` (stereo not drawn) [Compound 211, 4-(4-((1s,4s)-bicyclo[2.2.2]octan-2-yl)phenoxy)-N-methylbenzamide], the activity at 20 µM in test [1] was 40 to 60%; in test [2] it was 20 to 40%.
In the case of `Cc1ccc(Oc2ccc(C(=O)NO)cn2)cc1` [Compound 266, N-hydroxy-6-(p-tolyloxy)nicotinamide], the activity at 20 µM was 40 to 60% in test [1] and 0 to 20% in test [2]. Moreover, the fold induction at 10 µM in test [3] is 1.4 to 1.7.
As for `CN(C)C(=O)c1ccc(Oc2ccc(C34CC5CC(CC(C5)C3)C4)cc2)cc1` [Compound 238, 4-(4-((3r,5r,7r)-adamantan-1-yl)pheoxy)-N,N-dimethylbenzamide], the activity at 20 µM was in the range of 60 to 70% in test [1] and 40 to 60% in test [2].
Regarding `CN(C)C(=O)c1ccc(Oc2ccc(C34CC5CC(CC(C5)C3)C4)cc2)c(F)c1` [Compound 596, 4-(4-((3r,5r,7r)-adamantan-1-yl)phenoxy)-3-fluoro-N,N-dimethylbenzamide], the activity at 20 µM in test [1] lay in the range of 80 to 90%; in test [2], 20 to 40%.
Turning to `O=C(NO)c1ccc(Oc2ccc(C3C[C@@H]4CC[C@H]3C4)cc2)nc1` (stereo partly drawn) [Compound 286, 6-(4-((1S,4R)-bicyclo[2.2.1]heptan-2-yl)phenoxy)-N-hydroxynicotinamide], the activity at 20 µM in test [1] and in test [2] was 0 to 20% in each case. Further, the fold induction at 10 µM in test [3] was in the range of 1.3 to 1.4.
`CCc1ccc(Oc2ccc(C(=O)NO)cn2)cc1` [Compound 267, 6-(4-ethylphenoxy)-N-hydroxynicotinamide]: the activity at 20 µM fell in the range of 20 to 40% in test [1] and 0 to 20% in test [2]. The fold induction at 10 µM in test [3] lay in the range of 1.1 to 1.2.
In the case of `CCCCCc1ccc(Oc2ccc(C(=O)NO)cc2)cc1` [Compound 168, N-hydroxy-4-(4-pentylphenoxy)benzamide], the activity at 20 µM in test [1] and in test [2] was 0 to 20% throughout. For the same molecule, the fold induction at 10 µM in test [3] lay within 1.3 to 1.4.
`O=C(NO)c1ccc(Oc2ccc(C3(C(F)(F)F)CC3)cc2Cl)cc1` [Compound 774, 4-(2-chloro-4-(1-(trifluoromethyl)cyclopropyl)phenoxy)-N-hydroxybenzamide]: the activity at 20 µM in test [1] lay in the range of 70 to 80%; in test [2], 0 to 20%.
As to `O=C(NO)c1ccc(Oc2ccc(C3(C(F)(F)F)CC3)cc2)nc1` [Compound 802, N-hydroxy-6-(4-(1-(trifluoromethyl)cyclopropyl)phenoxy)nicotinamide], the activity at 20 µM in test [1] and in test [2] was 0 to 20% throughout.
Regarding `CN(C)C(=O)c1cnc(Oc2ccc(C3(C(F)(F)F)CC3)cc2)c(F)c1` [Compound 822, 5-fluoro-N,N-dimethyl-6-(4-(1-(trifluoromethyl)cyclopropyl)phenoxy)nicotinamide], the activity at 20 µM in test [1] was 80 to 90%; in test [2], 70 to 80%.
`CNC(=O)c1ccc(Oc2ccc(C34CC5CC(CC(C5)C3)C4)cc2)nc1` [Compound 313, 6-(4-((3r,5r,7r)-adamantan-1-yl)phenoxy)-N-methylnicotinamide]: the figures for the activity at 20 µM in test [1] and in test [2] were 70 to 80% and 40 to 60%, respectively.
For the molecule `O=C(NO)c1ccc(Oc2ccc(C3(C(F)(F)C(F)(F)F)CC3)cc2)nc1` [Compound 803, N-hydroxy-6-(4-(1-(perfluoroethyl)cyclopropyl)phenoxy)nicotinamide], the activity at 20 µM in test [1] and in test [2] was 0 to 20% each time.
Consider `CCCc1ccc(Oc2ccc(C(=O)NO)cn2)cc1` [Compound 268, N-hydroxy-6-(4-propylphenoxy)nicotinamide], for which the activity at 20 µM in test [1] and in test [2] was 0 to 20% in each case. Further, the fold induction at 10 µM in test [3] lay in the range of 1.3 to 1.4.
In the case of `Cc1ccc(Oc2ccc(C(=O)NO)cc2)cc1` [Compound 164, N-hydroxy-4-(p-tolyltoxy)benzamide], the results for the activity at 20 µM in test [1] and in test [2] were 70 to 80% and 40 to 60%, respectively.
In the case of `O=C(NO)c1cnc(Oc2ccc(C34CC5CC(CC(C5)C3)C4)cc2)c(F)c1` [Compound 648, 6-(4-((3r,5r,7r)-adamantan-1-yl)phenoxy)-5-fluoro-N-hydroxynictinamide], the activity at 20 µM in test [1] and in test [2] was 0 to 20% in each case.
Take `O=C(NO)c1ccc(Oc2ccc(C(F)(F)F)cc2)nc1` [Compound 275, N-Hydroxy-6-(4-(trifluoromethyl)phenoxy)nicotinamide]: the activity at 20 µM in test [1] and in test [2] was 0 to 20% in each case. Moreover, the fold induction at 10 µM in test [3] lay within 1.2 to 1.3.
For `CCCCCc1ccc(Oc2ccc(C(=O)NO)cn2)cc1` [Compound 270, N-hydroxy-6-(4-pentylphenoxy)nicotinamide], the activity at 20 µM in test [1] and in test [2] was 0 to 20% in each case.
As for `CCCCc1ccc(Oc2ccc(C(=O)NO)cn2)cc1` [Compound 269, 6-(4-butylphenoxy)-N-hydroxynicotinamide], the activity at 20 µM in test [1] and in test [2] was 0 to 20% throughout. Besides, the fold induction at 10 µM in test [3] is 1.4 to 1.7.
